Measured values: ChEMBL document CHEMBL1201862, “PubChem BioAssay data set” (2004)
Active and inactive are the calls of the source.

Columns and labels:
Type in all cases: functional
[1] = target: Dual specificity protein kinase CLK2 (Homo sapiens, UniProt P49760)
[2] = target: Tyrosine-protein kinase JAK2 (Homo sapiens, UniProt O60674);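 also: JAK2 tested as one member of a kinase panel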
[3] = target: Phosphorylase b kinase gamma catalytic chain, liver/testis isoform (Homo sapiens, UniProt P15735);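 also: PHKG2 measured as one member of a kinome-wide kinase panel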
[4] = target: RAC-gamma serine/threonine-protein kinase (Homo sapiens, UniProt Q9Y243)
[5] = target: Protein kinase C delta type (Homo sapiens, UniProt Q05655)
[6] = target: Testis-specific serine/threonine-protein kinase 2 (Homo sapiens, UniProt Q96PF2);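 also: part of the Navigating the Kinome panel, target entry STK22B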
[7] = target: Death-associated protein kinase 3 (Homo sapiens, UniProt O43293);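 also: measured as one member of a kinome-wide profiling panel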
[8] = target: High affinity nerve growth factor receptor (Homo sapiens, UniProt P04629);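 also: NTRK1 tested as one member of a kinome-wide profiling panel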
[9] = target: Serine/threonine-protein kinase pim-3 (Homo sapiens, UniProt Q86V86);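 also: value obtained as one member of a broad kinase panel profiling effort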
[10] = target: Non-receptor tyrosine-protein kinase TYK2 (Homo sapiens, UniProt P29597)
[11] = target: Cyclin-dependent kinase 8 (Homo sapiens, UniProt P49336); assay: Navigating the Kinome. Panel member name: CDK8
[12] = target: Cyclin-dependent kinase 9 (Homo sapiens, UniProt P50750);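 also: value from the CDK9 entry of a kinome-spanning kinase panel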
[13] = target: cAMP-dependent protein kinase catalytic subunit alpha (Homo sapiens, UniProt P17612)

Chain of Non-receptor tyrosine-protein kinase TYK2 (P29597 whole entry): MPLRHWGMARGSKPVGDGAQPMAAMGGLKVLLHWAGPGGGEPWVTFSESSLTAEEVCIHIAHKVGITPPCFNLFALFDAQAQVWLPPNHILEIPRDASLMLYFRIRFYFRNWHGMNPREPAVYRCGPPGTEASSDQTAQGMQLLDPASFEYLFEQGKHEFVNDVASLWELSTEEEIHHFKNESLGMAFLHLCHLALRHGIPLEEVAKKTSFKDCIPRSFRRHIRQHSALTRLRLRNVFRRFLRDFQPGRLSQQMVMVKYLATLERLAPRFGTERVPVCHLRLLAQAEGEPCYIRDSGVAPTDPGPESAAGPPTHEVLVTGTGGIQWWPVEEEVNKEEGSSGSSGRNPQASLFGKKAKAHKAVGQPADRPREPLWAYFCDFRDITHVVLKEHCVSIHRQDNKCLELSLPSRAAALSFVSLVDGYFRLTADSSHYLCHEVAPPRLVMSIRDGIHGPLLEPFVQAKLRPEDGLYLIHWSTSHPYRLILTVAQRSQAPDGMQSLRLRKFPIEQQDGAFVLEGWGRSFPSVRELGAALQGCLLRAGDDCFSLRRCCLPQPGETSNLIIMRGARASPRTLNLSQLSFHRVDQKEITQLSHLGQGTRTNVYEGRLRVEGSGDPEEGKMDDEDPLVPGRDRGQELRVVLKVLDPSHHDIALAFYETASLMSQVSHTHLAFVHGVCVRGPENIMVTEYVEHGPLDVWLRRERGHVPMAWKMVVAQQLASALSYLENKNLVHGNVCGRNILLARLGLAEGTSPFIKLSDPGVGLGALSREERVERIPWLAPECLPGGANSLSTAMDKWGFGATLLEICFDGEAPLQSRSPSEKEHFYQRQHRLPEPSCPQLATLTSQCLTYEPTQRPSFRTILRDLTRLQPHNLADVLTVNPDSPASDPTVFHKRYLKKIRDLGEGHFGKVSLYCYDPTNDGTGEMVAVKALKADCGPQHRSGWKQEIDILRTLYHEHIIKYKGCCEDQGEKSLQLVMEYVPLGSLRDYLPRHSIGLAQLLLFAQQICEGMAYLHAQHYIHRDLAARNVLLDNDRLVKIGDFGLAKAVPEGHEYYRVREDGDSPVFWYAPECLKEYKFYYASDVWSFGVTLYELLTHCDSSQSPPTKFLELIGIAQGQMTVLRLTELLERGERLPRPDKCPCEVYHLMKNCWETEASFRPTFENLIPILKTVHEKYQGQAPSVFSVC
Chain of Cyclin-dependent kinase 9 (P50750 whole entry): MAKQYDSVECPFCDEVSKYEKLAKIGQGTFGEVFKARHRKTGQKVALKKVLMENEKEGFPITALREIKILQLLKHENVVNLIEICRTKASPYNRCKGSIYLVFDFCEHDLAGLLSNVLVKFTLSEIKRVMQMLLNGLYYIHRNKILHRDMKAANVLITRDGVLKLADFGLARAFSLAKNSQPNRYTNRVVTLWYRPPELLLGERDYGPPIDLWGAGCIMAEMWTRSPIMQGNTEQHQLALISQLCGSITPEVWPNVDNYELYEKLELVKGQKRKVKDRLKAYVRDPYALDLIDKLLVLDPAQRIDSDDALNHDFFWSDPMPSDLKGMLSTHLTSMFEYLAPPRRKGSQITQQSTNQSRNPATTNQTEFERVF
Chain of Dual specificity protein kinase CLK2 (P49760 whole entry): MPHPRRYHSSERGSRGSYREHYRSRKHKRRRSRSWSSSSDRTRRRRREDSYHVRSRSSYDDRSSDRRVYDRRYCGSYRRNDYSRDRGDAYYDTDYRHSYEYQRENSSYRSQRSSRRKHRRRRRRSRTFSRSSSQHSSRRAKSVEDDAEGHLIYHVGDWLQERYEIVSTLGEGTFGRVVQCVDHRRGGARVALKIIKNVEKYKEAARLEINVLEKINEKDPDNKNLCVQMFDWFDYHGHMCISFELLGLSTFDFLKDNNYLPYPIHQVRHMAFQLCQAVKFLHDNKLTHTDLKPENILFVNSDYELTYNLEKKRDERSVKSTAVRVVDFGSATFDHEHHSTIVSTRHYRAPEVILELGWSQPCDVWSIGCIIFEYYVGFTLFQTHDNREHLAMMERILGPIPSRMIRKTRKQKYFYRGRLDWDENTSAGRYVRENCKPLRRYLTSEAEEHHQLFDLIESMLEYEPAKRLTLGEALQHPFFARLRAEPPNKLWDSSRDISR
Chain of Testis-specific serine/threonine-protein kinase 2 (Q96PF2 whole entry): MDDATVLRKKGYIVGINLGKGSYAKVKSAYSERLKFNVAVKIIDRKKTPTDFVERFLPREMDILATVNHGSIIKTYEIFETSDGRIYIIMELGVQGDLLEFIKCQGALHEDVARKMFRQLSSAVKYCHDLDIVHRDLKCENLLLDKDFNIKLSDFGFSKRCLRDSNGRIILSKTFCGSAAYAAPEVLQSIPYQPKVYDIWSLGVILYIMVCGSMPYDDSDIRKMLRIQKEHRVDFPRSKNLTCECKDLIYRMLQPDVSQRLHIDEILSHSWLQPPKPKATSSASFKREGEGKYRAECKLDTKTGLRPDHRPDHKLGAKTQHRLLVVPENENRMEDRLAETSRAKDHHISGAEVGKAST
Chain of Phosphorylase b kinase gamma catalytic chain, liver/testis isoform (P15735 whole entry, canonical isoform): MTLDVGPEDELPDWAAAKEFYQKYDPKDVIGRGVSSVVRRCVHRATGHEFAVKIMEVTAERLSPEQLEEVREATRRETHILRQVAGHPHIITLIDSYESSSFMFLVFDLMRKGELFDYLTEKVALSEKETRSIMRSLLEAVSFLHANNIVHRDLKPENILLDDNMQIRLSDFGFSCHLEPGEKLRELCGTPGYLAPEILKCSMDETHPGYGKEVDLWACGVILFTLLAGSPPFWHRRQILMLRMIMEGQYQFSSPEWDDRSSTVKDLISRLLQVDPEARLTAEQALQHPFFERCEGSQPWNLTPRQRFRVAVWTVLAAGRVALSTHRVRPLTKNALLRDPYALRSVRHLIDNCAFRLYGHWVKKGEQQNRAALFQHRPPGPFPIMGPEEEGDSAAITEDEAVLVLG
Chain of Tyrosine-protein kinase JAK2 (O60674 whole entry, canonical isoform): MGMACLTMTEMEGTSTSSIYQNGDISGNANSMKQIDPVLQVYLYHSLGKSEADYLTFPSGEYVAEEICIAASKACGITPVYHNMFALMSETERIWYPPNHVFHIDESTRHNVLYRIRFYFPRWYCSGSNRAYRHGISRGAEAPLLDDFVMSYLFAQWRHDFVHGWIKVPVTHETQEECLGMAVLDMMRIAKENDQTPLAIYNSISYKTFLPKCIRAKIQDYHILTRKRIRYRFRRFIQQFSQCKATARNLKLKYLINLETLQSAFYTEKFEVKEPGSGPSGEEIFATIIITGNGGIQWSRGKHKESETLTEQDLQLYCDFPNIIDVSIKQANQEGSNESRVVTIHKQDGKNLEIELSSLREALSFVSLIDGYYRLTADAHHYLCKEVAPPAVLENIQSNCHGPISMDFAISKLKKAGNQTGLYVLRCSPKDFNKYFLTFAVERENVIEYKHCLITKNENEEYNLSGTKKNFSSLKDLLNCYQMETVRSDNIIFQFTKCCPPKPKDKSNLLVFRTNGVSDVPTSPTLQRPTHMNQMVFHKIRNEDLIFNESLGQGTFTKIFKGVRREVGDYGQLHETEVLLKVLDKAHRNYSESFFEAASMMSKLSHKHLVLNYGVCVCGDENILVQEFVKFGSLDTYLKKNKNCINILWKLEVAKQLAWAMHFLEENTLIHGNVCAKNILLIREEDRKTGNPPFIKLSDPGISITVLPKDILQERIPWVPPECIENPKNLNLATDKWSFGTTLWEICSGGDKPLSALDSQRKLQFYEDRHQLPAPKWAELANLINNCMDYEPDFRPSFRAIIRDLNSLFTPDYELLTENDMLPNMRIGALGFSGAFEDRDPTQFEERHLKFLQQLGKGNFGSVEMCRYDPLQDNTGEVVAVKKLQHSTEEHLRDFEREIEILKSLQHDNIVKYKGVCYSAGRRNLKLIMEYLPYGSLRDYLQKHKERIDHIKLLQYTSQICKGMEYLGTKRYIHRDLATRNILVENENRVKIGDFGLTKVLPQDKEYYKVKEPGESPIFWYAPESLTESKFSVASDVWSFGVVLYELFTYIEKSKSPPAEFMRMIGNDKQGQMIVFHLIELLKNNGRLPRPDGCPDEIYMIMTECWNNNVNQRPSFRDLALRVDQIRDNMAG
Chain of Death-associated protein kinase 3 (O43293 whole entry): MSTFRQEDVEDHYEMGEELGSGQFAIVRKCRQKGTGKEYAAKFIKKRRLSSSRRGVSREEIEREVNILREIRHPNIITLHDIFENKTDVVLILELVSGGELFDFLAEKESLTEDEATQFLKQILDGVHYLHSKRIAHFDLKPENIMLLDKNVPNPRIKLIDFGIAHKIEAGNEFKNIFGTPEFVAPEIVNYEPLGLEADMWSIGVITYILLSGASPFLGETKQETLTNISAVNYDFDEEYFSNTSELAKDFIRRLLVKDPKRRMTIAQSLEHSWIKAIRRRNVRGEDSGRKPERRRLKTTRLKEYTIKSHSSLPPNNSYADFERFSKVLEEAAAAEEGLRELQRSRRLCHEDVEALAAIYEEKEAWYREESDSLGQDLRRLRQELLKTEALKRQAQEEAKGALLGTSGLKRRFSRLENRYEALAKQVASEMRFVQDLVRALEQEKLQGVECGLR

For `Clc1cc(NC2CCCCC2)nc(-c2c[nH]c3ncccc23)n1`, the Ki [1] was > 3160 nM (inactive), the Ki [2] was > 2510 nM (inactive) and the Ki [3] was > 5010 nM (inactive). For the same molecule, the Ki [4] was > 10000 nM (inactive), the Ki [5] was 316 nM (active) and the Ki [6] was > 1580 nM (inactive). The Ki [7] was 2510 nM (active), the Ki [8] was > 2510 nM (inactive) and the Ki [9] was 6310 nM (active). The Ki [10] was 1580 nM (active), the Ki [11] was 3160 nM (active) and the Ki [12] was > 3980 nM (inactive). The Ki [13] was 398 nM (active).
